PubChem BioAssay AID256 (DTP/NCI, 2004)
Values joined by “and” are separate entries in the source; they are usually repeats but may differ in a detail not shown here. Identical values can stand only once. Inconclusive results and toxic doses are left out. The calls were made as follows: active = survival T/C of 150% or more; inactive = T/C below 125% in these data.

Tested on: CD2F1 mice, L1210 leukemia ip, survival T/C
Assay: NCI In Vivo Anticancer Drug Screen. Data for tumor model L1210 Leukemia (intraperitoneal) in CD2F1 (CDF1) mice
Conditions: higher = longer survival
Summary of the method: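 Ratio T/C, where T is the treated-group value and C the vehicle-dosed control value, from mice implanted with a transplantable tumor.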

[1] = endpoint: mean survival time, dose: 25.0 mg/kg/injection, schedule: Q01DX009 (ip), vehicle: saline with Tween-80
[2] = endpoint: mean survival time, dose: 50.0 mg/kg/injection, schedule: Q01DX009 (ip), vehicle: saline with Tween-80
[3] = endpoint: mean survival time, dose: 100.0 mg/kg/injection, schedule: Q01DX001 (ip), vehicle: saline with Tween-80
[4] = endpoint: mean survival time, dose: 200.0 mg/kg/injection, schedule: Q01DX001 (ip), vehicle: saline with Tween-80
[5] = endpoint: mean survival time, dose: 400.0 mg/kg/injection, schedule: Q01DX001 (ip), vehicle: saline with Tween-80
[6] = endpoint: mean survival time, dose: 100.0 mg/kg/injection, schedule: Q01DX009 (ip), vehicle: saline with Tween-80
[7] = endpoint: mean survival time, dose: 100.0 mg/kg/injection, schedule: Q04DX003 (ip), vehicle: saline with Tween-80
[8] = endpoint: mean survival time, dose: 200.0 mg/kg/injection, schedule: Q04DX003 (ip), vehicle: saline with Tween-80

Measured: T/C

CCCCCCCCCCCCSC1=C(Cl)C(=O)C(OC)=C(OC)C1=O
inactive: endpoint: mean survival time, dose: 6.25 mg/kg/injection, schedule: Q01DX009 (ip), vehicle: saline with Tween-80 91 % of control | endpoint: mean survival time, dose: 12.5 mg/kg/injection, schedule: Q01DX009 (ip), vehicle: saline with Tween-80 94 % of control | [1] 95 % of control | [2] 93 % of control

C=Cc1ccc(NC(=O)CCn2cnc3c(N)ncnc32)cc1
inactive: endpoint: mean survival time, dose: 12.5 mg/kg/injection, schedule: Q01DX005 (ip), vehicle: distilled water + Tween-80 100 % of control | endpoint: mean survival time, dose: 25.0 mg/kg/injection, schedule: Q01DX005 (ip), vehicle: distilled water + Tween-80 102 % of control | endpoint: mean survival time, dose: 50.0 mg/kg/injection, schedule: Q01DX005 (ip), vehicle: distilled water + Tween-80 98 % of control | endpoint: mean survival time, dose: 100.0 mg/kg/injection, schedule: Q01DX005 (ip), vehicle: distilled water + Tween-80 98 % of control | endpoint: mean survival time, dose: 200.0 mg/kg/injection, schedule: Q01DX005 (ip), vehicle: distilled water + Tween-80 98 % of control

C/C=C/C(O)C(O)/C=C/C (configuration not stated)
inactive: [3] 94 % of control | [4] 97 % of control | [5] 97 % of control

O=S(=O)(SC(S(=O)(=O)c1ccccc1)S(=O)(=O)c1ccccc1)c1ccccc1
inactive: endpoint: mean survival time, dose: 12.5 mg/kg/injection, schedule: Q01DX009 (ip), vehicle: Klucel (hydroxypropylcellulose) (HPC) 94 % of control and 105 % of control | endpoint: mean survival time, dose: 25.0 mg/kg/injection, schedule: Q01DX009 (ip), vehicle: Klucel (hydroxypropylcellulose) (HPC) 97 % of control and 110 % of control | endpoint: mean survival time, dose: 50.0 mg/kg/injection, schedule: Q01DX009 (ip), vehicle: Klucel (hydroxypropylcellulose) (HPC) 98 % of control and 102 % of control | endpoint: mean survival time, dose: 100.0 mg/kg/injection, schedule: Q01DX009 (ip), vehicle: Klucel (hydroxypropylcellulose) (HPC) 96 % of control | endpoint: mean survival time, dose: 200.0 mg/kg/injection, schedule: Q01DX009 (ip), vehicle: Klucel (hydroxypropylcellulose) (HPC) 92 % of control and 104 % of control | endpoint: mean survival time, dose: 400.0 mg/kg/injection, schedule: Q01DX009 (ip), vehicle: Klucel (hydroxypropylcellulose) (HPC) 113 % of control and 94 % of control | endpoint: median survival time, dose: 100.0 mg/kg/injection, schedule: Q01DX009 (ip), vehicle: Klucel (hydroxypropylcellulose) (HPC) 103 % of control | endpoint: median survival time, dose: 200.0 mg/kg/injection, schedule: Q01DX009 (ip), vehicle: Klucel (hydroxypropylcellulose) (HPC) 102 % of control | endpoint: median survival time, dose: 400.0 mg/kg/injection, schedule: Q01DX009 (ip), vehicle: Klucel (hydroxypropylcellulose) (HPC) 102 % of control | endpoint: median survival time, dose: 800.0 mg/kg/injection, schedule: Q01DX009 (ip), vehicle: Klucel (hydroxypropylcellulose) (HPC) 92 % of control

C#CC(CC)OC(=O)c1cc([N+](=O)[O-])cc([N+](=O)[O-])c1 (configuration not stated)
inactive: [3] 87 % of control | endpoint: mean survival time, dose: 100.0 mg/kg/injection, schedule: Q04DX002 (ip), vehicle: saline with Tween-80 93 % of control | [4] 94 % of control | endpoint: mean survival time, dose: 200.0 mg/kg/injection, schedule: Q04DX002 (ip), vehicle: saline with Tween-80 93 % of control | [5] 90 % of control | endpoint: mean survival time, dose: 400.0 mg/kg/injection, schedule: Q04DX002 (ip), vehicle: saline with Tween-80 93 % of control

C#CCN(CC#C)C(=O)CCCCCCCCC=C
inactive: [6] 90 % of control | [7] 107 % of control | endpoint: mean survival time, dose: 200.0 mg/kg/injection, schedule: Q01DX009 (ip), vehicle: saline with Tween-80 93 % of control | [8] 92 % of control | endpoint: mean survival time, dose: 400.0 mg/kg/injection, schedule: Q01DX009 (ip), vehicle: saline with Tween-80 93 % of control | endpoint: mean survival time, dose: 400.0 mg/kg/injection, schedule: Q04DX003 (ip), vehicle: saline with Tween-80 98 % of control

CON(C)N=Nc1ccc(C(N)=O)cc1
inactive: endpoint: mean survival time, dose: 4.68 mg/kg/injection, schedule: Q01DX009 (ip), vehicle: Klucel (hydroxypropylcellulose) (HPC) 96 % of control and 110 % of control | endpoint: mean survival time, dose: 9.37 mg/kg/injection, schedule: Q01DX009 (ip), vehicle: Klucel (hydroxypropylcellulose) (HPC) 87 % of control and 109 % of control | endpoint: mean survival time, dose: 18.75 mg/kg/injection, schedule: Q01DX009 (ip), vehicle: Klucel (hydroxypropylcellulose) (HPC) 96 % of control and 101 % of control | endpoint: mean survival time, dose: 37.5 mg/kg/injection, schedule: Q01DX009 (ip), vehicle: Klucel (hydroxypropylcellulose) (HPC) 98 % of control and 104 % of control | endpoint: mean survival time, dose: 75.0 mg/kg/injection, schedule: Q01DX009 (ip), vehicle: Klucel (hydroxypropylcellulose) (HPC) 100 % of control and 103 % of control | endpoint: mean survival time, dose: 150.0 mg/kg/injection, schedule: Q01DX009 (ip), vehicle: Klucel (hydroxypropylcellulose) (HPC) 114 % of control and 103 % of control | endpoint: mean survival time, dose: 300.0 mg/kg/injection, schedule: Q01DX009 (ip), vehicle: Klucel (hydroxypropylcellulose) (HPC) 114 % of control

S=C(Nc1ccccc1)Nc1ccccn1
inactive: [3] 97 % of control | [4] 105 % of control | [5] 109 % of control

CCCNC(=O)NO
inactive: endpoint: mean survival time, dose: 4.0 mg/kg/injection, schedule: Q03HX024 (ip), vehicle: other 97 % of control | endpoint: mean survival time, dose: 8.0 mg/kg/injection, schedule: Q03HX024 (ip), vehicle: other 97 % of control | endpoint: mean survival time, dose: 16.0 mg/kg/injection, schedule: Q03HX024 (ip), vehicle: other 96 % of control | endpoint: mean survival time, dose: 32.0 mg/kg/injection, schedule: Q03HX024 (ip), vehicle: other 98 % of control | endpoint: mean survival time, dose: 64.0 mg/kg/injection, schedule: Q03HX024 (ip), vehicle: other 97 % of control

O=c1ccn(C2OC(CO)C(O)C2C[N+](=O)[O-])c(=O)[nH]1 (configuration not stated)
inactive: endpoint: mean survival time, dose: 12.5 mg/kg/injection, schedule: Q01DX005 (ip), vehicle: water 96 % of control | endpoint: mean survival time, dose: 25.0 mg/kg/injection, schedule: Q01DX005 (ip), vehicle: water 97 % of control | endpoint: mean survival time, dose: 50.0 mg/kg/injection, schedule: Q01DX005 (ip), vehicle: water 94 % of control | endpoint: mean survival time, dose: 100.0 mg/kg/injection, schedule: Q01DX005 (ip), vehicle: water 91 % of control | endpoint: mean survival time, dose: 200.0 mg/kg/injection, schedule: Q01DX005 (ip), vehicle: water 88 % of control

CC1CNC(Cl)O1 (configuration not stated)
inactive: [7] 87 % of control | [8] 105 % of control

CC1(C)OC2C(COC(=O)Oc3ccccc3)OC(n3cnc4c(=O)[nH]c(N)nc43)C2O1 (configuration not stated)
inactive: endpoint: mean survival time, dose: 100.0 mg/kg/injection, schedule: Q01DX001 (ip), vehicle: Klucel (hydroxypropylcellulose) (HPC) 92 % of control | endpoint: mean survival time, dose: 200.0 mg/kg/injection, schedule: Q01DX001 (ip), vehicle: Klucel (hydroxypropylcellulose) (HPC) 93 % of control | endpoint: mean survival time, dose: 400.0 mg/kg/injection, schedule: Q01DX001 (ip), vehicle: Klucel (hydroxypropylcellulose) (HPC) 92 % of control

O=C1CSC(=S)N1/N=C/c1ccccc1
inactive: endpoint: mean survival time, dose: 100.0 mg/kg/injection, schedule: Q04DX002 (ip), vehicle: saline 103 % of control

C=CCNC(=O)C[n+]1cccc(C(=O)Nc2ccc(Cl)cc2)c1
inactive: [1] 97 % of control | [2] 96 % of control | [6] 102 % of control | [7] 107 % of control

O=C(O)c1nn2c(=O)[nH]c3ccccc3c2c1C(=O)O
inactive: endpoint: mean survival time, dose: 12.5 mg/kg/injection, schedule: Q04DX002 (ip), vehicle: saline with Tween-80 90 % of control | endpoint: mean survival time, dose: 25.0 mg/kg/injection, schedule: Q04DX002 (ip), vehicle: saline with Tween-80 94 % of control | endpoint: mean survival time, dose: 50.0 mg/kg/injection, schedule: Q04DX002 (ip), vehicle: saline with Tween-80 87 % of control

Nc1cc2[nH]cnc2c(=O)[nH]1
inactive: endpoint: mean survival time, dose: 12.5 mg/kg/injection, schedule: Q01DX009 (ip), vehicle: suspension in saline 105 % of control | endpoint: mean survival time, dose: 25.0 mg/kg/injection, schedule: Q01DX005 (ip), vehicle: saline 97 % of control and 111 % of control | endpoint: mean survival time, dose: 25.0 mg/kg/injection, schedule: Q01DX009 (ip), vehicle: suspension in saline 113 % of control | endpoint: mean survival time, dose: 50.0 mg/kg/injection, schedule: Q01DX005 (ip), vehicle: saline 114 % of control and 119 % of control | endpoint: mean survival time, dose: 400.0 mg/kg/injection, schedule: Q01DX009 (ip), vehicle: suspension in saline 90 % of control
